{"source": "PubChem BioAssay AID1117276", "about": "(Broad Institute, 2014)", "test_system": "orthopoxvirus-infected cells, imaging factory/early/late reporters", "test": "orthopoxvirus gene expression and factory formation inhibitors, imaging, low MOI, factory DAPI readout, single point, dry powder (AID 1117276)", "conditions": "at 10 µM; stronger effect = higher value", "note": "Results filed as inconclusive are left out. Activity calls are given as the source filed them. The rule behind the calls is not given here."}
{"smiles": "C[C@@H](O)C#Cc1ccc2c(c1)O[C@@H](CN(C)Cc1ccc(-c3ccccc3)cc1)[C@@H](C)CN([C@@H](C)CO)S2(=O)=O", "values": [{"measurement": "activity score, factory formation (DAPI)", "value": "36 (inactive)"}]}
